From PMC11961695 (Annals of oncology : official journal of the European …, 2022)
“Also recorded” adds a separate entry of the source. Where two headings read alike, the source gives them in different places.

Columns and labels:
[1] = test system: locally advanced or metastatic cholangiocarcinoma; conditions: cited from earlier work
[2] = test system: refractory advanced malignancies with and without FGF/FGFR alterations; experiment: FIGHT-101 tumor response per investigator
serum phosphate = experiment: Serum phosphate pharmacodynamics and Emax exposure-response model; conditions: in vivo
[3] = FIGHT-101 safety and tolerability
[4] = FIGHT-101 clinical pharmacokinetics
[5] = FIGHT-202, FGFR2 fusions or rearrangements
[6] = cholangiocarcinoma with FGFR2 fusions or rearrangements (13 patients)
[7] = all treated patients, any grade

CCN1C(=O)N(c2c(F)c(OC)cc(OC)c2F)Cc2cnc3[nH]c(CN4CCOCC4)cc3c21 [pemigatinib]
Disease control rate [1, 5]: 82% | Estimated median OS [1, 5]: 17.5 months | ORR [1, 5]: 35.5% | Disease control rate ([1]; FIGHT-202, no FGF/FGFR alterations): 22% | Disease control rate ([1]; FIGHT-202, other FGF/FGFR alterations): 40% | Stable disease ([2]; FGF amplification): 20% | Stable disease ([2]; FGFR amplification): 26.9% | Stable disease ([2]; FGFR fusions or rearrangements): 50% | Median PFS ([2]; FGFR fusions or rearrangements (n = 20)): 5.7 months | Stable disease ([2]; FGFR mutations): 23.1% | Median PFS ([2]; FGFR mutations (n = 13)): 5.0 months | Time to disease progression, individual patient ([2]; adenoid cystic carcinoma of the head and neck, 9 mg QD (CD)): 20.5 months | Time on treatment to PR, individual patient ([2]; adenoid cystic carcinoma of the head and neck, 9 mg QD (CD), no FGF/FGFR alterations): 6.0 months | Disease progression ([2]; all patients (N = 128)): 38.3% | Median PFS ([2]; all patients (N = 128)): 2.8 months | Partial response ([2]; all patients (N = 128)): 9.4% | Partial responses achieved, number ([2]; all patients (N = 128)): 12 | Stable disease ([2]; all patients (N = 128)): 31.3% | Median duration of response ([2]; all responders (n = 12)): 7.3 months | Partial response [2, 6]: 23.1% | Stable disease [2, 6]: 61.5% | Duration of response, individual patient ([2]; cholangiocarcinoma, FGFR2-CCDC6 fusion): 11.3 months | Time on treatment to PR, individual patient ([2]; non-small-cell lung cancer, 9 mg QD (CD), FGF/FGFR status unknown): 6.2 months | Duration of response, individual patient ([2]; non-small-cell lung cancer, 9 mg QD (CD), ongoing at database lock): 29.9 months | Duration of response, individual patient ([2]; pancreatic cancer, FGFR2-USP33 fusion): 10.7 months | Stable disease ([2]; patients with FGF/FGFR alterations): 30.4% | ORR ([2]; patients with FGFR fusions or rearrangements): 25.0% | ORR ([2]; patients with FGFR mutations): 23.1% | Best median percentage change in target lesion size ([2]; patients with SD and FGF/FGFR alterations (n = 24)): −8.0% | Median PFS ([2]; positive for FGF/FGFR alterations (n = 79)): 3.0 months | Pharmacologically active doses (serum phosphate): ≥ 4 mg | Dose-limiting toxicities ([3]; 1–20 mg QD, ID or CD, cycle 1): No dose-limiting toxicities were reported; also recorded: No DLTs were reported in any dose cohort; also recorded: No DLTs were encountered | Clinically notable TEAEs ([3]; CD): 86.2% | Dose interruptions due to TEAEs ([3]; CD): 74.1% | Dose reductions due to TEAEs ([3]; CD): 17.2% | Fatigue, grade ≥3 TEAE ([3]; CD): 15.5% | Grade ≥3 TEAEs ([3]; CD): 75.9% | Grade ≥3 hyponatremia ([3]; CD): 10.3% | Grade ≥3 stomatitis ([3]; CD): 17.2% | Hyperphosphatemia, any-cause TEAE ([3]; CD): 82.8% | Hypophosphatemia events ([3]; CD): 12.1% | Treatment discontinuations due to TEAEs ([3]; CD): 12.1% | Clinically notable TEAEs ([3]; ID): 77.1% | Dose interruptions due to TEAEs ([3]; ID): 32.9% | Dose reductions due to TEAEs ([3]; ID): 5.7% | Fatigue, grade ≥3 TEAE ([3]; ID): 5.7% | Grade ≥3 TEAEs ([3]; ID): 50.0% | Grade ≥3 hyponatremia ([3]; ID): 7.1% | Grade ≥3 stomatitis ([3]; ID): 1.4% | Hyperphosphatemia, any-cause TEAE ([3]; ID): 68.6% | Hypophosphatemia events ([3]; ID): 18.6% | Treatment discontinuations due to TEAEs ([3]; ID): 8.6% | TEAEs of dry eye ([3]; all patients): 23.4% | TEAEs of eyelash changes ([3]; all patients): 13.3% | TEAEs of serous retinal detachment ([3]; all patients): no TEAEs of serous retinal detachment; also recorded: no serous retinal detachment events were reported | TEAEs of vision blurred ([3]; all patients): 16.4% | TEAEs of vitreous detachment ([3]; all patients): 1.6% | Clinically notable TEAEs ([3]; all treated patients): 81.3% | Dose interruption due to hypophosphatemia ([3]; all treated patients): 1.6% | Dose interruption due to nail toxicities ([3]; all treated patients): 7.8% | Dose interruption for hyperphosphatemia ([3]; all treated patients): 9.4% | Dose reduction due to nail toxicities ([3]; all treated patients): 0.8% | Dose reduction for hyperphosphatemia ([3]; all treated patients): 1.6% | Dose reductions due to hypophosphatemia ([3]; all treated patients): none required dose reductions | Fatigue, grade ≥3 TEAE ([3]; all treated patients): 10.2% | Hyperphosphatemia requiring dose interruption ([3]; all treated patients): 12 n | Hyperphosphatemia, grade ≥3 ([3]; all treated patients): 2.3% | Nail discoloration ([3]; all treated patients): 13.3% | Onycholysis ([3]; all treated patients): 14.8% | Paronychia ([3]; all treated patients): 10.2% | Patients with TEAE-related treatment discontinuation ([3]; all treated patients): 10.2% | Patients with a TEAE ([3]; all treated patients): 99.2% | Patients with dose interruption due to TEAEs ([3]; all treated patients): 51.6% | Patients with dose reduction due to TEAEs ([3]; all treated patients): 10.9% | Treatment-related TEAE ([3]; all treated patients): 90.6% | Hyperphosphatemia, any-cause TEAE ([3]; all treated patients (N = 128), any grade): 75% | Stomatitis requiring dose reduction ([3]; all treated patients (all CD)): 4 n | Pneumonia requiring discontinuation ([3]; all treated patients (both ID)): 2 n | Small intestinal obstruction requiring discontinuation ([3]; all treated patients (both ID)): 2 n | Hyperphosphatemia, treatment-related TEAE [3, 7]: 73.4% | Hypophosphatemia events [3, 7]: 15.6% | Nail toxicities [3, 7]: 32.0% | Hyperphosphatemia, treatment-related TEAE ([3]; all treated patients, grade ≥3): 1.6% | Hypophosphatemia events ([3]; all treated patients, grade ≥3): 5.5% | Nail toxicities ([3]; all treated patients, grade ≥3): 3.1% | Treatment discontinuations resulting from clinically notable TEAEs ([3]; grade 3 paronychia (20 mg CD), grade 2 trichiasis (13.5 mg CD)): two | Permanent treatment discontinuation due to hyperphosphatemia ([3]; in vivo): None of the hyperphosphatemia events resulted in permanent treatment discontinuation | Relation of deaths due to TEAEs to treatment ([3]; in vivo): None of these deaths were considered treatment-related | Maximum tolerated dose ([3]; monotherapy, 1–20 mg QD): not reached | Increase in average per-cycle exposure, CD versus ID regimen ([4]; 13.5 mg QD): 50% | Dose proportionality of steady-state Cmax and AUC0–24 ([4]; 1–20 mg QD): dose-proportional increases | Effect of a high-fat and high-calorie meal on pharmacokinetics ([4]; human, in vivo): modest effects on pemigatinib pharmacokinetics that were not considered clinically meaningful | half-life ([4]; human, in vivo, Steady-state geometric mean terminal-phase disposition half-life, doses ≥6 mg QD): 12.1 to 15.4 h
